Data published in PMC6268586, “Effect of Wine and Vinegar Processing of Rhizoma Corydalis on the Tissue Distribution of Tetrahydropalmatine, Protopine and Dehydrocorydaline in Rats” (Molecules, 2012).
Read-outs that look alike come from different tables or passages of the source.

Assay: Tissue distribution of THP, DHC and protopine in rat tissues after gastric gavage administration (HPLC-UV, non-compartmental analysis)
Type: in vivo, Wistar male rats
Details: male, Wistar, po, 4.52 mg/kg; for AUC(0-t): read-out: AUC0–24 h of protopine; for Cmax: read-out: Cmax of protopine; for MRT: read-out: MRT of protopine; for Tmax: read-out: Tmax of protopine
Experimental: The experimental protocol was approved by the University's Animal Ethics Committee. […] Rats had unlimited access to water. Standard food was given until 12 h before the experiments. Rhizoma Corydalis was processed according to Pharmacopoeia of Chinese Medicine and National Guideline of Traditional Chinese Medicinal Plants Processing. Briefly, fresh Rhizoma Corydalis was boiled in water till the pith turn light brown color. Cooked rhizome was sliced into pieces (4 mm, diameter) and dried at 25 °C. Dried slices were mixed with edible vinegar (100:20, rhizome/vinegar, w/v) or yellow wine (100:10, rhizome/wine, w/v) and the slices allowed to completely absorb the vinegar or wine. The soaked slices were then stir-fried in a metallic pan over a low flame till they were completely dry. The processed Rhizoma Corydalis was added with 70% ethanol (1:30 w/v) and sonicated for 1 h at room temperature. The extract was then concentrated to remove the ethanol residue and stored at 4 °C for further use. […] The ethanol extract of the unprocessed Rhizoma Corydalis and THP, DHC and protopine pure compound were used as the controls. Three hundred and sixty healthy rats were used in total and are divided into six groups (Group 1-6, sixty rats per group). Drugs were administrated by gastric gavage method. In order to keep the dose of THP, DHC and protopine constant in each group, the amount of ethanol extract of Rhizoma Corydalis administrated was normalized based on the dose of protopine pure compound used. The dose of THP and DHC pure compound administrated was same with that in the ethanol extract of Rhizoma Corydalis. The details were listed below. […] Rats were administrated with the 70% ethanol extract of unprocessed Rhizoma Corydalis at a dose of 17.75 g extract/kg body weight. […] Rats received the extract of vinegar-processed Rhizoma Corydalis at a dose of 15 g extract/kg rat body weight. Group 3: Rats were administrated with the extract of wine processed Rhizoma Corydalis at a dose of 15.78 g extract/kg body weight. […] Rats received THP pure compound at a dose of 6.45 mg/kg body weight. Group 6: Rats were administrated 26.10 mg of DHC pure compound/kg body weight. […] Brian tissue was further dissected into six parts: cerebrum, cerebellum, diencephalons, brain stem, hippocampus and striatum. All the tissue samples were rinsed with ice-old saline and stored at -20 °C until extraction. Tissue samples were homogenized in three volumes of ice-cold biological saline and centrifuged for 10 min at 10,000 g and 4 °C. An aliquot of the supernatant (0.5 mL) was collected. Liquid-liquid extraction was used to extract THP, DHC and protopine. One hundred microliter of 1.0 μg/mL nuciferin (internal standard) was mixed with 0.5 mL aliquots of the supernatant. […] The supernatant was evaporated completely under the nitrogen stream in a 60 °C water bath. The residue was redissolved in 100 μL of methanol. A CoMetro HPLC system (CoMetro Technology Ltd, South […], NJ, USA) with 6000 PVW detector UV-VIS detector was used. […] Ltd., Liaoning, China). Other chromatographic conditions were: column temperature, 35 °C; mobile phase, acetonitrile-0.1% phosphoric acid (pH 3.0) (30:70 v/v); flow rate, 1 mL/min; wavelength, 280 nm. Pharmacokinetic parameters were estimated by non-compartmental analysis using Equiv Test/PK (Statistical Solutions Ltd., Saugus, MA, USA). The maximum concentration (Cmax) and the time to reach the maximum concentration (Tmax) were directly obtained from the observed value. All data were represented as mean ± SD. Comparison of values between groups was performed using one-way ANOVA followed by Tukey's test for comparisons among four groups.

[1] = diencephalon, rat diencephalons

AUC(0-t) [1]: 3180 ± 70 ng·h/mL
Cmax [1]: 1310 ± 270 ng/mL
MRT [1]: 4.89 ± 0.01 h
Tmax [1]: 2.07 ± 0.21 h
AUC(0-t) (rat brain stem): 2020 ± 420 ng·h/mL
Cmax (rat brain stem): 820 ± 170 ng/mL
MRT (rat brain stem): 3.9 ± 0.14 h
Tmax (rat brain stem): 2.2 ± 0.01 h
AUC(0-t) (rat cerebellum): 3800 ± 830 ng·h/mL
Cmax (rat cerebellum): 1560 ± 320 ng/mL
MRT (rat cerebellum): 4.86 ± 0.08 h
Tmax (rat cerebellum): 2.08 ± 0.01 h
AUC(0-t) (rat cerebrum): 3650 ± 780 ng·h/mL
Cmax (rat cerebrum): 1350 ± 270 ng/mL
MRT (rat cerebrum): 3.93 ± 0.06 h
Tmax (rat cerebrum): 2.1 ± 0.8 h
AUC(0-t) (rat heart): 6230 ± 1560 ng·h/mL
Cmax (rat heart): 1500 ± 450 ng/mL
MRT (rat heart): 5.93 ± 0.02 h
Tmax (rat heart): 5.28 ± 0.42 h
AUC(0-t) (rat hippocampus): 3660 ± 810 ng·h/mL
Cmax (rat hippocampus): 1560 ± 310 ng/mL
MRT (rat hippocampus): 5.23 ± 0.1 h
Tmax (rat hippocampus): 2.09 ± 0.04 h
AUC(0-t) (rat kidney): 13400 ± 2650 ng·h/mL
Cmax (rat kidney): 4420 ± 1310 ng/mL
MRT (rat kidney): 5.53 ± 0.04 h
Tmax (rat kidney): 5.13 ± 0.04 h
AUC(0-t) (rat liver): 27800 ± 6980 ng·h/mL
Cmax (rat liver): 6670 ± 1970 ng/mL
MRT (rat liver): 5.69 ± 0.03 h
Tmax (rat liver): 5.09 ± 0.68 h
AUC(0-t) (rat lung): 50200 ± 12500 ng·h/mL
Cmax (rat lung): 11200 ± 3310 ng/mL
MRT (rat lung): 5.85 ± 0.04 h
Tmax (rat lung): 5.22 ± 0.47 h
AUC(0-t) (rat spleen): 35000 ± 8180 ng·h/mL
Cmax (rat spleen): 7420 ± 2220 ng/mL
MRT (rat spleen): 5.65 ± 0.03 h
Tmax (rat spleen): 5.22 ± 0.05 h
AUC(0-t) (rat striatum): 6420 ± 1520 ng·h/mL
Cmax (rat striatum): 1950 ± 400 ng/mL
MRT (rat striatum): 6.57 ± 0.43 h
Tmax (rat striatum): 2.07 ± 0.08 h
Structure (SMILES): CN1CCc2cc3c(cc2C(=O)Cc2ccc4c(c2C1)OCO4)OCO3 [protopine]
